Consider four compounds from article PMC9022596, “Convergent Evolution of Antibiotic Tolerance in Patients with Persistent Methicillin-Resistant Staphylococcus aureus Bacteremia” (Infection and Immunity, 2022).

Assay in all cases: microbe, parasite or virus in culture
Common to all, as to design: species or system Staphylococcus aureus clinical blood isolates and ATCC 29213; Broth microdilution MIC in cation-adjusted Mueller-Hinton broth with 50 ug/mL CaCl2, EUCAST reading, 37 C

One experiment concerns T1, S. aureus ATCC 29213.
T1 construct: ATCC 29213
Particulars: Staphylococcus aureus, ATCC29213, 16 h; replicate MIC, MHB + 50 ug/mL CaCl2. On the procedure:
(§1) MICs were measured in cation-adjusted Mueller-Hinton broth (MHB) supplemented with 50 μg/mL CaCl2 (MHB-Ca^2+) via broth microdilution in 96-well plates with an inoculum of ∼5 × 10^5 CFU per mL. Antibiotic test concentrations ranged from 0.0625 μg/mL to 32 μg/mL by 2-fold dilutions. Plates were incubated at 37°C for 16 h without shaking, and results were interpreted in accordance with European Committee on Antimicrobial Susceptibility Testing reading guidelines ([72]). S. aureus ATCC 29213 was used as a quality-control strain.

Experiment [1] relates to T2, Staphylococcus aureus PB0409.
T2 construct: PB0409
Particulars: PB0409, 16 h, replicate MIC, MHB + 50 ug/mL CaCl2. Here is the method:
as §1

Experiment [2] concerns T3, Staphylococcus aureus PB1101.
T3 construct: PB1101
Particulars: PB1101, 16 h, replicate MIC, MHB + 50 ug/mL CaCl2. Here is the method: as §1

The subject of experiment [3] is T4, Staphylococcus aureus PB1511.
T4 construct: PB1511
To be noted: PB1511, 16 h, replicate MIC, MHB + 50 ug/mL CaCl2. On the procedure: as §1

Experiment [4] concerns T5, Staphylococcus aureus PB1802.
T5 construct: PB1802
Particulars: PB1802, 16 h, replicate MIC, MHB + 50 ug/mL CaCl2. On the procedure: as §1

Experiment [5] concerns T6, Staphylococcus aureus PB1405.
T6 construct: PB1405
Particulars: PB1405, 16 h, replicate MIC, MHB + 50 ug/mL CaCl2. Here is the method: as §1

For experiment [6], the system named is T7, Staphylococcus aureus PB0906.
T7 construct: PB0906
Particulars: PB0906, 16 h, replicate MIC, MHB + 50 ug/mL CaCl2. On the procedure: as §1

Experiment [7] concerns T8, Staphylococcus aureus PB1803.
T8 construct: PB1803
Particulars: PB1803, 16 h, replicate MIC, MHB + 50 ug/mL CaCl2. On the procedure: as §1

Experiment [8] relates to T9, Staphylococcus aureus PB0411.
T9 construct: PB0411
Particulars: PB0411, 16 h, replicate MIC, MHB + 50 ug/mL CaCl2. Here is the method: as §1

Experiment [9] has as its system T10, Staphylococcus aureus PB0208.
T10 construct: PB0208
Particulars: PB0208, 16 h, replicate MIC, MHB + 50 ug/mL CaCl2. On the procedure: as §1

For experiment [10], the system named is T11, Staphylococcus aureus PB0701.
T11 construct: PB0701
Particulars: PB0701, 16 h, replicate MIC, MHB + 50 ug/mL CaCl2. Here is the method:
as §1

For experiment [11], the system named is T12, Staphylococcus aureus PB1406.
T12 construct: PB1406
To be noted: PB1406, 16 h, replicate MIC, MHB + 50 ug/mL CaCl2. Here is the method:
as §1

Experiment [12] relates to T13, Staphylococcus aureus PB0610.
T13 construct: PB0610
To be noted: PB0610, 16 h, replicate MIC, MHB + 50 ug/mL CaCl2. Here is the method:
as §1

Experiment [13] deals with T14, Staphylococcus aureus PB0702.
T14 construct: PB0702
Particulars: PB0702, 16 h, replicate MIC, MHB + 50 ug/mL CaCl2. Here is the method: as §1

Experiment [14] concerns T15, Staphylococcus aureus PB1512.
T15 construct: PB1512
To be noted: PB1512, 16 h, replicate MIC, MHB + 50 ug/mL CaCl2. Here is the method:
as §1

Structures are written as SMILES. Where “and” joins values, the source holds several entries; their conditions need not be identical. Identical values can stand only once.

`CCO/N=C(\C(=O)N[C@@H]1C(=O)N2C(C(=O)[O-])=C(Sc3nc(-c4cc[n+](C)cc4)cs3)CS[C@H]12)c1nsc(N)n1` [Ceftaroline]: the MIC stood at 0.25 µg/mL with S. aureus ATCC 29213; 0.5 µg/mL in [1]; 0.5 µg/mL in [2]; 0.5 µg/mL in [3]; 0.5 µg/mL in experiment [4]; 0.25 µg/mL in [5]. The MIC amounted to 0.5 µg/mL in [6]; 0.5 µg/mL in experiment [7]; 0.5 µg/mL in experiment [8]; 0.5 µg/mL in [9]; 0.25 µg/mL in [10]; 0.25 µg/mL in experiment [11]. The MIC turned out to be 0.25 µg/mL in [12], 0.5 µg/mL in experiment [13] and 0.5 µg/mL in experiment [14].

`CCCCCCCCCC(=O)N[C@@H](Cc1c[nH]c2ccccc12)C(=O)N[C@H](CC(N)=O)C(=O)N[C@@H](CC(=O)O)C(=O)N[C@@H]1C(=O)NCC(=O)N[C@@H](CCCN)C(=O)N[C@@H](CC(=O)O)C(=O)N[C@H](C)C(=O)N[C@@H](CC(=O)O)C(=O)NCC(=O)N[C@H](CO)C(=O)N[C@@H]([C@H](C)CC(=O)O)C(=O)N[C@@H](CC(=O)c2ccccc2N)C(=O)O[C@@H]1C` [Daptomycin]: the MIC in the experiment on S. aureus ATCC 29213 was 1 µg/mL; in experiment [1], 1 µg/mL; in [2], 2 µg/mL; in [3], 2 µg/mL; in experiment [4], 2 µg/mL; in [5], 2 µg/mL and 1 µg/mL. For the same compound, the MIC in experiment [6] was 2 µg/mL; in experiment [7] it was 2 µg/mL; in [8], 1 µg/mL; in [9] it was 1 µg/mL; in experiment [10], 1 µg/mL and 2 µg/mL; in [11] it was 1 µg/mL. In addition, the MIC in [12] is 1 µg/mL; in [13], 2 µg/mL; in [14] it was 1 µg/mL.

Turning to `CC(=O)NC[C@H]1CN(c2ccc(N3CCOCC3)c(F)c2)C(=O)O1` [Linezolid], the MIC (in the experiment with S. aureus ATCC 29213; in experiment [1]; in experiment [2]; in [3]; in [4]; in experiment [5]) was 4 µg/mL in each case. The MIC in experiment [6], in [7], in experiment [8], in experiment [9], in experiment [10] and in experiment [11] was 4 µg/mL throughout. Further, the MIC in experiment [12], in experiment [13] and in [14] was 4 µg/mL each time.

`CN[C@H](CC(C)C)C(=O)N[C@H]1C(=O)N[C@@H](CC(N)=O)C(=O)N[C@H]2C(=O)N[C@H]3C(=O)N[C@H](C(=O)N[C@H](C(=O)O)c4cc(O)cc(O)c4-c4cc3ccc4O)[C@H](O)c3ccc(c(Cl)c3)Oc3cc2cc(c3O[C@@H]2O[C@H](CO)[C@@H](O)[C@H](O)[C@H]2O[C@H]2C[C@](C)(N)[C@H](O)[C@H](C)O2)Oc2ccc(cc2Cl)[C@H]1O` [Vancomycin]: the MIC (in the experiment on S. aureus ATCC 29213; in [1]; in [2]; in experiment [3]; in experiment [4]; in experiment [5]) was 2 µg/mL in each case. Moreover, the MIC in [6] was 2 µg/mL; in experiment [7] it was 2 µg/mL; in [8], 2 µg/mL; in experiment [9] it was 4 µg/mL; in experiment [10], 2 µg/mL; in [11], 2 µg/mL. Besides, the MIC was 2 µg/mL and 4 µg/mL in experiment [12]; 2 µg/mL in experiment [13]; 2 µg/mL in [14].
